Measurements reported in patent US6869589B1, “Cryptate compounds and methods for diagnosis and therapy” (Australian Nuclear Science & Technology Organization, priority 1999, dated 2005).
Where two headings read alike, the source gives them in different places.

Assays:
[1] = mouse, in vivo
Method: (§1) The biodistribution of the ^64Cu complexes of compounds (1), (3) and (4) (0.10 ml intravenous injection) were evaluated in balb/c mice (5 animals per time point) at 3, 5, 10, 15, 20 and 30 minute time intervals. Biodistribution studies were performed in duplicate.

[2] = Effect of pH on complexation of ^64Cu by compound (3), monitored by ITLC-SG; format: physicochemical
Method: The effect of pH on complexation of ^64Cu by compound (3) was investigated. Compound (3) was diluted into buffers of pH 3.0, 4.0, 5.0, 6.0, 7.0, 8.0 and 9.0. A sufficient amount of ^64Cu was added and the rate of complexation was monitored at (t=1, 2.5, 5, 10, 60 and 90 mins) (see method below) by Instant Thin Layer Chromatography (ITLC-SG). Complete complexation (>98%) was achieved within 1 min for all pH ≧4.0. The rate of complexation at pH 3.0 was slower. (FIG. 2).
Monitoring Complexation by ITLC-SG
ITLC-SG strips (10 cm×0.8 cm) were spotted with ˜1 μL of reaction mixture 1 cm from the bottom of the strip (origin) and were developed in a solvent containing 0.1 M sodium acetate (pH 4.5): ethanol=9:1. ^64Cu-compound (3) remains at the origin (Rf=0.0), and “free” ^64Cu appears at the solvent front (Rf=1.0).

[3] = Serum stability of ^67Cu complex in human plasma at 37° C., size exclusion chromatography; format: in vitro ADME; settings: first 174 hours
Method: Serum stability studies were conducted by incubating a ^67Cu complex of related species (4) in human plasma at 37° C. [drawing 11]
At various time intervals, the complex was separated from the plasma by size exclusion chromatography and the complex breakdown was assessed. […] (FIGS. 1a and 1b).

[4] = Biodistribution of ^64Cu complexes in balb/c mice; settings: for Clearance of the complex (biodistribution, in words): if the ligand detaches from the antibody
Method: as §1

Nc1ccc(CNC23CNCCNCC(N)(CNCCNC2)CNCCNC3)cc1 [compound (3)]
Clearance of the complex (biodistribution, in words) [1]: clear rapidly from the system | Time to complete complexation of ^64Cu ([2]; all pH ≧4.0): ≤ 1 min | Complexation of ^64Cu (complete complexation) ([2]; all pH ≧4.0, within 1 min, ITLC-SG): > 98% | Rate of complexation of ^64Cu ([2]; pH 3.0, compared with pH ≧4.0): slower

C1CNCC2CNCCNCC(CN1)CNCCNC2.[67Cu+2] [^67Cu complex of compound (4)]
Copper lost from the chelator [3]: no more than 2%

C1CNCC2CNCCNCC(CN1)CNCCNC2.[64Cu+2] [^64Cu-labelled compound (4)]
% injected dose per gram ([4]; BLADDER, 3 MIN): 13.15 % INJECTED DOSE PER GRAM | % injected dose per gram ([4]; BLADDER, 5 MIN): 28.05 % INJECTED DOSE PER GRAM | % injected dose per gram ([4]; BLADDER, 10 MIN): 69.91 % INJECTED DOSE PER GRAM | % injected dose per gram ([4]; BLADDER, 15 MIN): 8.17 % INJECTED DOSE PER GRAM | % injected dose per gram ([4]; BLADDER, 20 MIN): 16.38 % INJECTED DOSE PER GRAM | % injected dose per gram ([4]; BLADDER, 30 MIN): 25.38 % INJECTED DOSE PER GRAM | % injected dose per gram ([4]; BLOOD, 3 MIN): 8.25 % INJECTED DOSE PER GRAM | % injected dose per gram ([4]; BLOOD, 5 MIN): 7.08 % INJECTED DOSE PER GRAM | % injected dose per gram ([4]; BLOOD, 10 MIN): 4.41 % INJECTED DOSE PER GRAM | % injected dose per gram ([4]; BLOOD, 15 MIN): 2.71 % INJECTED DOSE PER GRAM | % injected dose per gram ([4]; BLOOD, 20 MIN): 1.40 % INJECTED DOSE PER GRAM | % injected dose per gram ([4]; BLOOD, 30 MIN): 1.07 % INJECTED DOSE PER GRAM | % injected dose per gram ([4]; BONE, 3 MIN): 1.60 % INJECTED DOSE PER GRAM | % injected dose per gram ([4]; BONE, 5 MIN): 1.56 % INJECTED DOSE PER GRAM | % injected dose per gram ([4]; BONE, 10 MIN): 1.28 % INJECTED DOSE PER GRAM | % injected dose per gram ([4]; BONE, 15 MIN): 1.60 % INJECTED DOSE PER GRAM | % injected dose per gram ([4]; BONE, 20 MIN): 0.89 % INJECTED DOSE PER GRAM | % injected dose per gram ([4]; BONE, 30 MIN): 0.65 % INJECTED DOSE PER GRAM | % injected dose per gram ([4]; GIT, 3 MIN): 2.62 % INJECTED DOSE PER GRAM | % injected dose per gram ([4]; GIT, 5 MIN): 2.16 % INJECTED DOSE PER GRAM | % injected dose per gram ([4]; GIT, 10 MIN): 1.49 % INJECTED DOSE PER GRAM | % injected dose per gram ([4]; GIT, 15 MIN): 1.07 % INJECTED DOSE PER GRAM | % injected dose per gram ([4]; GIT, 20 MIN): 0.89 % INJECTED DOSE PER GRAM | % injected dose per gram ([4]; GIT, 30 MIN): 0.80 % INJECTED DOSE PER GRAM | % injected dose per gram ([4]; HEART, 3 MIN): 3.25 % INJECTED DOSE PER GRAM | % injected dose per gram ([4]; HEART, 5 MIN): 2.66 % INJECTED DOSE PER GRAM | % injected dose per gram ([4]; HEART, 10 MIN): 1.60 % INJECTED DOSE PER GRAM | % injected dose per gram ([4]; HEART, 15 MIN): 1.08 % INJECTED DOSE PER GRAM | % injected dose per gram ([4]; HEART, 20 MIN): 0.51 % INJECTED DOSE PER GRAM | % injected dose per gram ([4]; HEART, 30 MIN): 0.47 % INJECTED DOSE PER GRAM | % injected dose per gram ([4]; KIDNEY, 3 MIN): 20.08 % INJECTED DOSE PER GRAM | % injected dose per gram ([4]; KIDNEY, 5 MIN): 18.62 % INJECTED DOSE PER GRAM | % injected dose per gram ([4]; KIDNEY, 10 MIN): 14.79 % INJECTED DOSE PER GRAM | % injected dose per gram ([4]; KIDNEY, 15 MIN): 7.52 % INJECTED DOSE PER GRAM | % injected dose per gram ([4]; KIDNEY, 20 MIN): 25.99 % INJECTED DOSE PER GRAM | % injected dose per gram ([4]; KIDNEY, 30 MIN): 30.26 % INJECTED DOSE PER GRAM | % injected dose per gram ([4]; LIVER, 3 MIN): 1.81 % INJECTED DOSE PER GRAM | % injected dose per gram ([4]; LIVER, 5 MIN): 1.59 % INJECTED DOSE PER GRAM | % injected dose per gram ([4]; LIVER, 10 MIN): 1.16 % INJECTED DOSE PER GRAM | % injected dose per gram ([4]; LIVER, 15 MIN): 0.64 % INJECTED DOSE PER GRAM | % injected dose per gram ([4]; LIVER, 20 MIN): 5.01 % INJECTED DOSE PER GRAM | % injected dose per gram ([4]; LIVER, 30 MIN): 5.76 % INJECTED DOSE PER GRAM | % injected dose per gram ([4]; LUNGS, 3 MIN): 5.85 % INJECTED DOSE PER GRAM | % injected dose per gram ([4]; LUNGS, 5 MIN): 5.28 % INJECTED DOSE PER GRAM | % injected dose per gram ([4]; LUNGS, 10 MIN): 2.84 % INJECTED DOSE PER GRAM | % injected dose per gram ([4]; LUNGS, 15 MIN): 2.09 % INJECTED DOSE PER GRAM | % injected dose per gram ([4]; LUNGS, 20 MIN): 1.13 % INJECTED DOSE PER GRAM | % injected dose per gram ([4]; LUNGS, 30 MIN): 0.92 % INJECTED DOSE PER GRAM | % injected dose per gram ([4]; MUSCLE, 3 MIN): 1.76 % INJECTED DOSE PER GRAM | % injected dose per gram ([4]; MUSCLE, 5 MIN): 2.10 % INJECTED DOSE PER GRAM | % injected dose per gram ([4]; MUSCLE, 10 MIN): 1.24 % INJECTED DOSE PER GRAM | % injected dose per gram ([4]; MUSCLE, 15 MIN): 1.73 % INJECTED DOSE PER GRAM | % injected dose per gram ([4]; MUSCLE, 20 MIN): 0.36 % INJECTED DOSE PER GRAM | % injected dose per gram ([4]; MUSCLE, 30 MIN): 1.27 % INJECTED DOSE PER GRAM | % injected dose per gram ([4]; SKIN, 3 MIN): 5.98 % INJECTED DOSE PER GRAM | % injected dose per gram ([4]; SKIN, 5 MIN): 6.46 % INJECTED DOSE PER GRAM | % injected dose per gram ([4]; SKIN, 10 MIN): 4.21 % INJECTED DOSE PER GRAM | % injected dose per gram ([4]; SKIN, 15 MIN): 2.76 % INJECTED DOSE PER GRAM | % injected dose per gram ([4]; SKIN, 20 MIN): 1.73 % INJECTED DOSE PER GRAM | % injected dose per gram ([4]; SKIN, 30 MIN): 1.42 % INJECTED DOSE PER GRAM | % injected dose per gram ([4]; SPLEEN, 3 MIN): 2.26 % INJECTED DOSE PER GRAM | % injected dose per gram ([4]; SPLEEN, 5 MIN): 2.17 % INJECTED DOSE PER GRAM | % injected dose per gram ([4]; SPLEEN, 10 MIN): 1.28 % INJECTED DOSE PER GRAM | % injected dose per gram ([4]; SPLEEN, 15 MIN): 0.67 % INJECTED DOSE PER GRAM | % injected dose per gram ([4]; SPLEEN, 20 MIN): 0.52 % INJECTED DOSE PER GRAM | % injected dose per gram ([4]; SPLEEN, 30 MIN): 0.35 % INJECTED DOSE PER GRAM | % injected dose per gram ([4]; STOMACH, 3 MIN): 3.53 % INJECTED DOSE PER GRAM | % injected dose per gram ([4]; STOMACH, 5 MIN): 3.04 % INJECTED DOSE PER GRAM | % injected dose per gram ([4]; STOMACH, 10 MIN): 1.84 % INJECTED DOSE PER GRAM | % injected dose per gram ([4]; STOMACH, 15 MIN): 0.89 % INJECTED DOSE PER GRAM | % injected dose per gram ([4]; STOMACH, 20 MIN): 0.70 % INJECTED DOSE PER GRAM | % injected dose per gram ([4]; STOMACH, 30 MIN): 0.65 % INJECTED DOSE PER GRAM

NC12CNCCNCC(N)(CNCCNC1)CNCCNC2 [compound (1)]
Clearance of the complex (biodistribution, in words) [4]: clear rapidly from the system

NC12C[N]3CC[N]4CC5(NCc6ccc([N+](=O)[O-])cc6)C[N]6CC[N](C1)[Cu]3461[N](CC[N]1C5)C2 [compound (2)]
Clearance of the complex (biodistribution, in words) [4]: clear rapidly from the system
